From patent US20250221936A1, “ENGINEERED HEMICHANNELS, ENGINEERED VESICLES, AND USES THEREOF” (VIRGINIA TECH INTELLECTUAL PROPERTIES, INC., priority 2018, published 2025)

Tests used:
[1] = system: Neonatal cardiac fibroblasts (NHFs); test: Collagen synthesis by neonatal cardiac fibroblasts, Western blotting; format: cell-based, rat
Excerpt: Isolation and treatment of Neonatal Cardiac Fibroblasts with Cx43 based peptides (peptides used included ACT1, JM1, JM2, Antennapedia [ANT], reverse ACT1 [Rev], poly Arginine [poly r]). Said peptides with and without internalization vectors can be loaded into the provided EVs and can elicit results similar to those observed for naked peptide as follows. Neonatal cardiac fibroblasts (NHFs) were isolated from 3-4 day old rat hearts by collagenase digestion (100 U/mL) and differential attachment as previously described (Borg et ah, 1984). All cells were maintained in Dulbecco's Modified Eagle Medium (DMEM) supplemented with 10% Fetal Bovine Serum and 100 U/mL penicillin G and 100 μg/mL streptomycin and used prior to passage four. For experiments, 40,000 NHFs were plated into the wells of a 24-well tissue culture plate and grown for 24-48 hours. On the day of treatment, media was removed from each well and replaced with fresh media containing 50 μg/mL L-ascorbic acid-2-phosphate; Sigma Chemical Co., St. Louis, MO). The appropriate volume of each peptide (resuspended in sterile, deionized 18 MQ resistivity water) was added to achieve the desired final concentration (30, 90, 180 µM peptide concentrations were tested). Culture plates were incubated overnight in a 37° C. incubator with 5% C02.
Protein Isolation and Examination of Collagen Synthesis by Western Blotting. Conditioned culture media was collected from each well and stored at −20° C. for analysis of soluble collagen. Cellular protein, including insoluble collagen and collagen still within the NHFs, were isolated by adding 100-200 μL, of cell lysis buffer (0.01 M Tris, pH 7.4, 0.001 M Sodium Orthovanadate, 1% sodium dodecylsulfate [SDS]) to each well and incubating 10 minutes at room temperature. Prior to addition, cell lysis buffer was warmed to facilitate solubilization of SDS and 100 u L of Halt protease inhibitor (Pierce Biotechnology, Rockford, IL) was added per 10 mL buffer to be used. After incubation, the well bottoms were scraped and liquid transferred to a microcentrifuge tube for storage at −20° C. Protein concentrations of cell lysates were determined using a Micro BCA assay (Pierce). SDS-PAGE samples were prepared by combining either 10 μg of cell lysate or 30 μL of conditioned media with XT loading buffer (BioRad, Hercules, CA), dithiothreitol and boiled for five minutes. Samples were loaded onto 3-8% Tris-Acetate Criterion X T gels (BioRad, Hercules, CA) and proteins separated at 140V. After electrophoresis, proteins were transferred onto […] nitrocellulose membranes (BioRad) overnight at room temperature (Transfer buffer: 25 mM Tris, 192 mM Glycine, 20% Methanol, 0.01% SDS). The presence of collagen was determined by probing the membranes with a rabbit anti-mouse collagen type I antibody (MD Biosciences) at 1:20,000 dilution in blocking buffer (5% milk in Tris-buffered saline) followed by a goat anti-rabbit IgG horseradish peroxidase conjugated antibody at 1:100,000 (Southern Biotech Associates) and detection with Pierce SuperSignal Femto West detection reagent (Pierce). To assess the activity of JM1 and JM2 peptides with respect to collagen production and their potential in mediating wound healing, cardiac fibroblasts were treated with these two peptides and their effectiveness compared to that for the previous described Cx43 peptide ACT1. NHFs were treated with various concentrations of JM1, JM2, ACT1, and ANT (Antennapedia) peptides, vehicle (water) or left untreated and the production of collagen both in the culture media and cell-associated collagen assessed by western blotting. […] To evaluate the impact of the poly-Arginine (poly-r)N-terminal sequence on JM1 and Jm2 activity, NHF cells were treated with a poly-r peptide.

[2] = target: T1, Cx43 CT-KK/QQ (Rattus norvegicus, UniProt P08050, K345Q/K346Q); test: Surface plasmon resonance, Cx43 CT-KK/QQ analyte; format: binding; conditions: biotin-peptide immobilized on streptavidin chip
T1 construct: pGEX-6-P2 Cx43 CT amino acids 255-382; GST (N, cleaved yes); made in house; host or cells: E. coli BL21
T1 sequence (P08050 255-382 K345Q/K346Q): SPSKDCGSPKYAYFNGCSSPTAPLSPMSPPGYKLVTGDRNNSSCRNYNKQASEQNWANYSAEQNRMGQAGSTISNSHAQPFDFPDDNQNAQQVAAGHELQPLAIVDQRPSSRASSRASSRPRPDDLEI
Excerpt: Peptides were synthesized and quality checked for fidelity and purity using High Performance Liquid Chromatography and mass spectrometry (LifeTein, Hillsborough, NJ). Biotinylated peptides were designed for surface plasmon resonance experiments. Glutathione-S-Transferase (GST) fusion protein constructs composed of the Cx43-CT (pGEX-6-P2 Cx43 CT amino acids 255-382), ZO-1 PDZ1, PDZ2 and PDZ3 were isolated and purified from isopropyl-b-D-thiogalactoside (IPTG)-induced BL21 bacteria using standard procedures, described in references 13, 14, 20. The pGEX6p2-Cx43 CT plasmid was obtained from Prof. Paul L. Sorgen (University of Nebraska Medical Center, USA). Cx43 CT mutant (Cx43 CT-KK/QQ; amino acids Lys345 Lys346 to Gln 345 Gln 346) was developed by site-directed mutagenesis of the pGEX6p2-Cx43 CT plasmid (Agilent technologies, QuikChange II Site-Directed Mutagenesis Kit). The mutation was verified by sequencing. For surface plasmon resonance experiments, the GST was removed using PreScission protease, yielding Cx43 CT protein (wild-type or mutant).
(§1) Efficacy of the interaction of each alpha CT1 variant with Cx43 CT or Cx43 CT-KK/QQ was tested using surface plasmon resonance (SPR) as described previously 20. In brief, SPR experiments were performed using a Biacore T200 (GE Healthcare). Equal amounts (response units/RU) of biotin-alpha CT1 variants were immobilized on each flow cell of a streptavidin-coated sensor chip (Biacore Inc) using immobilization buffer (in mM: 10 HEPES, 1 EDTA, 100 NaCl, 0.005% Tween-20) at pH 7.4. Measurements with wild-type (wt) Cx43 CT and mutant Cx43 CT-KK/QQ analytes were done in running buffer (in mM: 10 HEPES, 100 NaCl, pH 7.4) at a flow rate of 30 μl/min. Binding of analytes were verified at different concentrations, in random order (injection volume 120 μl). Interacting proteins were then unbound by injection of […] regeneration buffer (50 mM NaOH and 1 M NaCl) at a flow rate of 10 μl/min. Background levels were obtained from a reference cell containing a biotin-control peptide in which the reversed sequence of the last 9 amino acids of Cx43 was fused to biotin-antennapedia. The RU values obtained with biotin-control peptide were subtracted from the RU values obtained with the different biotin-alphaCT1 variants (wild-type or mutant) to generate the different response curves.

[3] = target: T2, Cx43 CT (amino acids 255 to 382) (Rattus norvegicus, UniProt P08050); test: Surface plasmon resonance, Cx43 CT analyte; format: binding; conditions: biotin-peptide immobilized on streptavidin chip; analyte 0.5 to 15 μM
T2 construct: Cx43-CT: amino acids 255 to 382; GST (N, cleaved yes); made in house; host or cells: E. coli BL21
T2 sequence (P08050 255-382): as the sequence (P08050 255-382 K345Q/K346Q) above, with Q91K, Q92K counted along it
Experimental: as §1

Sequence | mature type I collagen in conditioned media ([1]; 180 μM) | mature type I collagen in conditioned media ([1]; 30, 90, 180 µM) | collagen produced versus poly-r peptide ([1]; about 90 μM) | mature type I collagen in cell lysate ([1]; versus ACT1 peptide) | SPR binding to Cx43 CT-KK/QQ [2] | SPR binding to Cx43 CT [3]
VFFKGVKDRVKGRSD [JM2] | no mature type I collagen was detected | dose-dependent decrease in the production of mature, type I collagen | less than half of that produced by cells treated with the poly-r peptide | more profound reduction in the amount of mature type I collagen | – | –
RQPKIWFPNRRKPWKKRPRPDDLAI [M3 DDLAI] | – | – | – | – | unable mediate interactions | abrogated peptide interaction with Cx43 CT
RQPKIWFPNRRKPWKKRPRPDDLEI [alpha CT1] | – | dose-dependent reduction in the secretion of mature, fully processed collagen | – | – | unable mediate interactions | –
RQPKIWFPNRRKPWKK RPRPAALAI (RQPKIWFPNRRKPWKKRPRPAALAI) [M1 AALAI] | – | – | – | – | unable mediate interactions | loss of Cx43 CT binding competence
